Laboratory results taken from ChEMBL document CHEMBL1201862, “PubChem BioAssay data set” (2004).
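Tested at 5 concentrations; 48 h exposure; 96-well plates; endpoints linearly interpolated, else capped at highest concentration. GI50 is the concentration that inhibits growth by half.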 Active and inactive are the calls of the source. Rule as the data show it: active = GI50 up to about 1.1 µM and inactive = higher.

How the values were obtained:
Assay in all cases: NCI anticancer screen, dose series, 48 h
SK-OV-3 = tested on: SK-OV-3
K562 = tested on: K562
NCI-H522 = tested on: NCI-H522
LXFL 529 = tested on: LXFL 529
786-0 = tested on: 786-0
CAKI-1 = tested on: CAKI-1
KM12 = tested on: KM12
HL-60 = tested on: HL-60
RXF 631 = tested on: RXF 631
OVCAR-8 = tested on: OVCAR-8
LOX IMVI = tested on: LOX IMVI
HT-29 = tested on: HT-29
SR = tested on: SR
RXF 393 = tested on: RXF 393
OVCAR-5 = tested on: OVCAR-5
DMS-114 = tested on: DMS-114
SF-268 = tested on: SF-268
SNB-19 = tested on: SNB-19
DLD-1 = tested on: DLD-1
NCI-H226 = tested on: NCI-H226
M14 = tested on: M14
M19-MEL = tested on: M19-MEL
UO-31 = tested on: UO-31
HCC 2998 = tested on: HCC 2998
HOP-92 = tested on: HOP-92
OVCAR-3 = tested on: OVCAR-3
U-251 = tested on: U-251
KM-20L2 = tested on: KM-20L2
SN12C = tested on: SN12C
NCI-H23 = tested on: NCI-H23
SNB-75 = tested on: SNB-75
A498 = tested on: A498
Malme-3M = tested on: Malme-3M
UACC-62 = tested on: UACC-62
OVCAR-4 = tested on: OVCAR-4
SK-MEL-28 = tested on: SK-MEL-28
SNB-78 = tested on: SNB-78
HOP-18 = tested on: HOP-18
SF-295 = tested on: SF-295
HCT-15 = tested on: HCT-15
SW-620 = tested on: SW-620
ACHN = tested on: ACHN
A549 = tested on: A549
HOP-62 = tested on: HOP-62
IGROV-1 = tested on: IGROV-1
COLO 205 = tested on: COLO 205
TK-10 = tested on: TK-10
SF-539 = tested on: SF-539
UACC-257 = tested on: UACC-257
EKVX = tested on: EKVX
XF498 = tested on: XF498
NCI-H460 = tested on: NCI-H460
CCRF-CEM = tested on: CCRF-CEM
HCT-116 = tested on: HCT-116
SK-MEL-5 = tested on: SK-MEL-5
SK-MEL-2 = tested on: SK-MEL-2
RPMI-8226 = tested on: RPMI-8226
MOLT-4 = tested on: MOLT-4

Measured: GI50

N#Cc1cc([N+](=O)[O-])ccc1NC(=O)C(=O)C(C(=O)/C=C/c1ccccc1)C1OC(=O)c2ccccc21 (stereo not drawn)
inactive: SK-OV-3 > 100 µM | K562 13.9 µM | NCI-H522 > 100 µM | LXFL 529 > 100 µM | 786-0 > 100 µM | CAKI-1 > 100 µM | KM12 > 100 µM | HL-60 > 100 µM | RXF 631 > 100 µM | OVCAR-8 > 100 µM | LOX IMVI > 100 µM | HT-29 > 100 µM | SR 1.69 µM | RXF 393 60.5 µM | OVCAR-5 > 100 µM | DMS-114 > 100 µM | SF-268 > 100 µM | SNB-19 > 100 µM | DLD-1 > 100 µM | NCI-H226 > 100 µM | M14 > 100 µM | M19-MEL > 100 µM | UO-31 > 100 µM | HCC 2998 > 100 µM | HOP-92 > 100 µM | OVCAR-3 > 100 µM | U-251 > 100 µM | KM-20L2 > 100 µM | SN12C > 100 µM | NCI-H23 > 100 µM | SNB-75 > 100 µM | A498 > 100 µM | Malme-3M > 100 µM | UACC-62 > 100 µM | OVCAR-4 > 100 µM | SK-MEL-28 > 100 µM | SNB-78 > 100 µM | HOP-18 > 100 µM | SF-295 > 100 µM | SW-620 > 100 µM | ACHN > 100 µM | A549 > 100 µM | HOP-62 > 100 µM | IGROV-1 > 100 µM | COLO 205 > 100 µM | TK-10 > 100 µM | SF-539 > 100 µM | UACC-257 > 100 µM | EKVX > 100 µM | XF498 > 100 µM | NCI-H460 > 100 µM | CCRF-CEM 8.65 µM | HCT-116 > 100 µM | SK-MEL-5 > 100 µM
> 100 µM: HCT-15

O=C(/C=C/c1ccc(-c2ccccc2)cc1)c1ccccc1
17.7 µM: HCT-15
inactive: SK-OV-3 23.7 µM | K562 27.7 µM | NCI-H522 17.3 µM | LXFL 529 17.6 µM | 786-0 22.8 µM | CAKI-1 38.7 µM | KM12 17.9 µM | HL-60 39.6 µM | RXF 631 25.2 µM | OVCAR-8 17.3 µM | LOX IMVI 15.7 µM | HT-29 21.9 µM | SR 12.7 µM | OVCAR-5 17.3 µM | DMS-114 14.6 µM | SF-268 24.8 µM | SK-MEL-2 12.7 µM | DLD-1 26.3 µM | NCI-H226 22.1 µM | M14 31.1 µM | M19-MEL 24 µM | UO-31 35 µM | HCC 2998 18.2 µM | RPMI-8226 19.5 µM | HOP-92 16.6 µM | U-251 22.9 µM | SN12C 30.4 µM | NCI-H23 20.1 µM | SNB-75 31 µM | A498 20 µM | MOLT-4 46.9 µM | Malme-3M 41.9 µM | UACC-62 20.8 µM | OVCAR-4 29.7 µM | SK-MEL-28 25.8 µM | SNB-78 29 µM | HOP-18 > 100 µM | SF-295 30.2 µM | SW-620 20.7 µM | ACHN 31.6 µM | A549 19.5 µM | IGROV-1 26.7 µM | COLO 205 22.3 µM | TK-10 22.1 µM | SF-539 17.9 µM | UACC-257 32.4 µM | EKVX 23.3 µM | XF498 25.2 µM | NCI-H460 20.6 µM | CCRF-CEM 90.4 µM | HCT-116 14.5 µM | SK-MEL-5 19.7 µM
